From ChEMBL document CHEMBL6083227, “Novel sulfonamides unveiled as potent anti-lung cancer agents via tumor pyruvate kinase M2 activation” (RSC Med Chem, 2024)
pEC50, pIC50: −log10 of the molar value.

What was measured:
BEAS-2B = assay: Antiproliferative activity against human BEAS-2B cells incubated for 48 hrs by Alamar blue staining based assay
Pyruvate kinase PKM = Pyruvate kinase PKM (Homo sapiens, UniProt P14618); assay: Activation of recombinant human PKM2 using pyruvate as substrate measured for 20 mins in presence of beta-NADH by LDH-coupled assay
Pyruvate kinase PKM, sequence (P14618 whole entry): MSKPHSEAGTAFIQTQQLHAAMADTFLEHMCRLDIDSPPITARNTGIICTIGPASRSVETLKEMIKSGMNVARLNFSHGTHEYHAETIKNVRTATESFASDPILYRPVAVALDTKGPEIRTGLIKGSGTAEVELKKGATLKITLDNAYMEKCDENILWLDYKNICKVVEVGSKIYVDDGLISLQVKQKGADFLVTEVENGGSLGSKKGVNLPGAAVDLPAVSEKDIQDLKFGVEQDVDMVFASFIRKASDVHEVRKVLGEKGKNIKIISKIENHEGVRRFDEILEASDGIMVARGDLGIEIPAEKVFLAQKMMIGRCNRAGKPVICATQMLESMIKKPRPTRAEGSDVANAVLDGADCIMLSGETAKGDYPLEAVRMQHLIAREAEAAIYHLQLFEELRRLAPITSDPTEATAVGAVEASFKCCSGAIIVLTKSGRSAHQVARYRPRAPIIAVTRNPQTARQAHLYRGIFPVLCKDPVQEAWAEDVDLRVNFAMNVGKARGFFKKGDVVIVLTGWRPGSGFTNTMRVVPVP

A549 = assay: Antiproliferative activity against human A549 cells incubated for 48 hrs by Alamar blue staining based assay; conditions: A549, 48 h

SMILES	pEC50 (Pyruvate kinase PKM)	pIC50 (A549)	pIC50 (BEAS-2B)
COc1cccc2c1C(=O)c1c(O)c3c(c(O)c1C2=O)C[C@@](O)(C(=O)CO)C[C@@H]3O[C@H]1C[C@H](N)[C@H](O)[C@H](C)O1 [DOXORUBICIN]	–	5.79	4.61
Nc1cccc(S(=O)(=O)N2CCCN(S(=O)(=O)c3ccc4c(c3)OCCO4)CC2)c1	–	5.84	4.45
O=C(CN1CCN(S(=O)(=O)c2cc(F)ccc2F)CC1)c1cnc2ncccn12	6.19	5.90	4.58
COc1ccc(S(=O)(=O)N2CCN(CC(=O)c3cnc4ccccn34)CC2)cc1	7.38	5.74	4.34
O=C(CN1CCN(S(=O)(=O)C2CC2)CC1)c1cnc2ncccn12	7.04	5.75	4.27
Cc1ccc(S(=O)(=O)N2CCN(CC(=O)c3cnc4ncccn34)CC2)cc1	6.98	6.00	4.40
COc1ccc(-c2ccc(S(=O)(=O)N3CCN(CC(=O)c4cnc5ncccn45)CC3)cc2)cc1	6.36	5.80	5.04
O=C(CN1CCN(S(=O)(=O)c2cccs2)CC1)c1cnc2ccccn12	6.87	5.94	4.52
O=C(CN1CCN(S(=O)(=O)C2CCCCC2)CC1)c1cnc2ccccn12	6.05	5.78	4.22
O=C(CN1CCN(S(=O)(=O)c2ccc(F)cc2Cl)CC1)c1cnc2ccccn12	6.69	6.02	4.42
O=C(CN1CCN(S(=O)(=O)c2ccc(F)cc2)CC1)c1cnc2ccccn12	6.42	5.77	4.28
O=C(CN1CCN(S(=O)(=O)c2ccc([N+](=O)[O-])cc2)CC1)c1cnc2ccccn12	6.19	5.84	4.70
O=C(CN1CCN(S(=O)(=O)c2ccc(C(F)(F)F)cc2)CC1)c1cnc2ncccn12	6.68	5.91	4.80

Continued by rising pIC50 (A549), values first:

pEC50 (Pyruvate kinase PKM)	pIC50 (A549)	SMILES	pIC50 (BEAS-2B)
6.21	5.76	O=C(CN1CCN(S(=O)(=O)c2ccc(F)cc2Cl)CC1)c1cnc2ncccn12	4.78
6.85	5.77	O=C(CN1CCN(S(=O)(=O)c2ccccc2)CC1)c1cnc2ccccn12	4.35
6.74	5.77	Cc1cc(C)c(S(=O)(=O)N2CCN(CC(=O)c3cnc4ccccn34)CC2)c(C)c1	4.94
6.22	5.78	O=C(CN1CCN(S(=O)(=O)c2cccc(Br)c2)CC1)c1cnc2ccccn12	4.40
6.83	5.82	N#Cc1ccccc1S(=O)(=O)N1CCN(CC(=O)c2cnc3ccccn23)CC1	4.25
6.48	5.84	COc1ccc(Br)cc1S(=O)(=O)N1CCN(CC(=O)c2cnc3ccccn23)CC1	4.51
6.26	5.89	O=C(CN1CCN(S(=O)(=O)c2ccc(C(F)(F)F)cc2)CC1)c1cnc2ccccn12	4.21
6.20	5.94	O=C(CN1CCN(S(=O)(=O)c2cccc(Br)c2)CC1)c1cnc2ncccn12	4.41
